For 34 compounds, viability results are on record in paper PMC12040169 (PLOS Biology, 2025).

SMILES strings stand for the structures.

The data set is described as follows: in vitro. As to conditions: human, hela cells, % viability.

In general, viability refers to a read-out of living cells in per cent, often relative to untreated cells. Take `CC(=C\C(=O)O)/C(=C/c1ccc2ccccc2n1)C(=O)O` [CBK278294N]: the viability at 28.5 h, 10 µM amounted to 87.7%.

On to `OC(COCc1ccccc1)CN1CCN(Cc2ccccc2)CC1` (stereo not shown) [CBK278297C], for which the viability at 28.5 h, 10 µM was 107%. To `CN1CCc2c1nc1ccccc1c2NC(=O)CN1CCCCCC1` [CBK278298G] belongs 90.6%; to `O=C(CN1CCN(C(c2ccccc2)c2ccccc2)CC1)Nc1c2c(nc3ccccc13)CCC2` [CBK278299G], 92.7%; to `O=C(O)C(=N\Nc1ccccc1)/C(=N/Nc1ccccc1)C(=O)O` [CBK278303N], 100%.

On to `c1csc(CNCCCN2CCOCC2)c1` [CBK278305C], for which the viability at 28.5 h, 10 µM amounted to 91.1%. Then `Cc1ccc(Cl)cc1N1CCN(CC(O)COCc2ccc3c(c2)OCO3)CC1` (stereo not shown) [CBK278308C], with 106%. Then `N=C(N)SCc1ccc(CSC(=N)N)cc1` [CBK278309C], with 84.5%; and `O=C(O)c1nsnc1C(=O)O` [CBK278311K], with 114%; and `COc1ccc(-c2ccc(CNCCCN3CCOCC3)o2)cc1Cl` [CBK278312C], with 103%.

Regarding `COc1ccc(CCc2nc(C)cc(CN(C)C)c2O)cc1` [CBK278313C], the viability at 28.5 h, 10 µM was determined as 106%. Then `N=C(N)SCCCCCSC(=N)N` [CBK278314B], with 88.2%. Consider `OC(COCc1ccc(Cl)cc1)CN1CCN(c2cccc(Cl)c2)CC1` (stereo not shown) [CBK278315C], for which the viability at 28.5 h, 10 µM was determined as 87.9%. Then `CN(C)Cc1cc(CN(C)C)c(O)c(CCc2ccccc2)n1` [CBK278316C], with 90.9%; and `N=C(N)SCc1ncccc1O` [CBK278318C], with 102%; and `O=S(=O)(O)c1cc(S(=O)(=O)O)c2cc(O)c(S(=O)(=O)O)cc2c1` [CBK278319N], with 96.7%.

Consider `COc1ccc(CCc2nc(C)cc(CN(C)C)c2O)cc1OC` [CBK278320C], for which the viability at 28.5 h, 10 µM amounted to 89%. To `Cc1cc(NC(=O)CN2CCN(c3ccccc3)CC2)c2ccccc2n1` [CBK278322G] belongs 99.5%. For the compound `COc1ccccc1N1CCN(CC(O)COCc2ccc3c(c2)OCO3)CC1` (stereo not shown) [CBK278323C], the viability at 28.5 h, 10 µM came out at 101%. To `CN1CCN(c2cc(CNC(=O)c3cc(=O)[nH]c4ccccc34)ccn2)CC1` [CBK279658] belongs 101%; to `CS(=O)(=O)N(CCc1ccccc1)CC(=O)O` [CBK281244], 109%. To `COc1ccccc1C1(O)CC2CCC(C1)N2` (stereo not shown) [CBK281369] belongs 81.9%. To `CC(=O)N1CC(C(=O)Nc2ncc(-c3ccccc3)n2C)C1` [CBK281373] belongs 96.1%; to `CCn1cncc1C(=O)N1CCCC1(C)C(=O)NC1CCCC1` (stereo not shown) [CBK281376], 81.2%; to `Cc1nc(NC(=O)Cn2c3c(c4ccccc42)CCC3)nn1C` [CBK281377], 85.5%. In the case of `O=C(NCC1(c2ccccc2F)CCCC1)c1cc[nH]c(=O)c1` [CBK281378], the viability at 28.5 h, 10 µM came out at 112%. To `CC(C)c1nccn1-c1ccc(NC(=O)CCCn2ccnc2)cc1` [CBK281380] belongs 93%; to `Cc1cc(S(=O)(=O)NCCn2nc(C)c(C)c2C)ccc1F` [CBK281382], 71.9%. To `Cc1ccc(CS(=O)(=O)NCCn2nc(C)c(C)c2C)cc1` [CBK281383] belongs 91.2%; to `CCn1cnc2cc(NC(=O)C3CC4C=CC3C43CC3)ccc21` (stereo not shown) [CBK281384], 73.8%. Then `Cc1ncncc1C(=O)N1CCc2sccc2C1c1ccccc1` (stereo not shown) [CBK281386], with 113%; and `COc1ccc2[nH]cc(C(=O)NCCn3nc(C)c(C)c3C)c2c1` [CBK281389], with 88.2%. Turning to `CCn1c(CNC(=O)C(C)Cn2cc(Cl)cn2)nc2ccccc21` (stereo not shown) [CBK281392], the viability at 28.5 h, 10 µM stood at 91.9%.

In the case of `CCn1c(CNC(=O)c2cc(C(C)C)on2)nc2ccccc21` [CBK281393], the viability at 28.5 h, 10 µM amounted to 94.2%.
